{"source": "patent US5707963A", "about": "“Methods of using growth inhibitory peptides” (Health Research, Incorporated, priority 1996, dated 1998)", "key": {"[1]": {"system": "estrogen-stimulated growth of mouse uterus", "assay_type": "in vivo", "experimental": "An in vivo wet weight bioassay measuring inhibition of estrogen-stimulated growth of uteri was performed. The procedure of Mizejewski et al. was used for the wet weight assay (see Mizejewski, G. J. et al. (1983); Mizejewski, G. J. et al. (1986); Mizejewski, G. J. and A. S. Warner (1989); Mizejewski, G. J. et al., \"Separation of the Estrogen-Activated Growth-Regulatory Forms of Alpha-Fetoprotein in Mouse Amniotic Fluid,\" Biol of Reprod 42:887-898 (1990); and Allen, S.H.G. et al. (1993)).\n(§1) Briefly, the synthesized powdered peptide was reconstituted in saline (1 mg/ml) to form a stock solution of the GIP. The stock solution was appropriately diluted to provide dosages of 25 to 100 ng/mouse. 0.1 ml of the appropriately diluted GIP was injected intraperitoneally into 15-18 day old Nya:NYLAR female mice. Control mice were injected with saline or other peptides, including a peptide encoded by a portion of the amino acid sequence of albumin and a random 34 amino acid peptide. 1 hour after this first injection, an estrogen challenge of 0.5 micrograms of E2 in 0.1 ml saline was given to determine the change in uterine responsiveness to E2 resulting from exposure to the first injection. 23 hours after the second injection, uteri were dissected, trimmed free of connective tissue and immediately weighed. The uterine wet weights were normalized to mouse body weight (mg uterine weight/g of body weight) to compensate for differences in body weight among litters of the same age. Percent inhibition of estrogen-stimulated uterine growth was calculated as described by Mizejewski et al. (1983).\nTwo separate bioassays for inhibition of estrogen-stimulated growth were used. The first was an in vivo bioassay measuring an estrogen-induced increase in wet weight of the immature mouse uterus in a 24-hour determination. Dosages of peptide fragments ranged from 10 to 100 ng, and the %inhibition given in Table 6 represents the peak assay point of the dilution series."}, "[2]": {"system": "mouse mammary tumor 6WI-1", "assay_type": "in vivo", "experimental": "A second assay was also used to assess the percent of inhibition for the various fragments. […] The procedure of Parsons et al. was used in this assay (see Parsons et al., Cancer investigation 4(2):109-126 (1986)). The mouse mammary tumor 6WI-1 normally kills animals within 12-15 days. In this assay, the tumor cells were injected into the body cavity of live mice. […] The inhibition of tumor growth is indicated by percentage. […] Unless otherwise indicated, the dose of peptide or peptide fragment was injected into the body cavity of the mice on day 1 and every day for 15 days. Percent inhibition was measured on day 15."}, "[3]": {"system": "diethylstilbestrol (DES)-stimulated growth of mouse uterus", "test": "In vivo wet weight bioassay, inhibition of DES-stimulated growth of uteri", "conditions": "for Percent Growth Inhibition: immature mouse uterus", "experimental": "An in vivo wet weight bioassay measuring inhibition of diethylstilbestrol (DES)-stimulated growth was also performed. The procedure of Mizejewski et al. (see previous citations) was used for the wet weight assay. The applicability of the wet weight bioassay for measuring DES-stimulated growth of uteri is disclosed by Korach, K. S. et al., \"Estrogenic activity in vivo and in vitro of some diethylstilbestrol metabolites and analogs\", Proc Natl Acad Sci USA 75:468-471 (1978).\nas §1, with “10 ng” for “25”, “μg/mouse.” for “ng/mouse.”, “saline.” for “saline or other peptides, including a peptide encoded by a portion of the amino acid sequence of albumin and a random 34 amino acid peptide.”, “a DES” for “an estrogen”, “DES” for “E2”, “DES-stimulated” for “estrogen-stimulated”"}}, "note": "Several values for one entry are separate records, joined by “and”; a condition that tells them apart may be missing. Identical values can stand only once. Like-named read-outs stand apart in the source and are kept apart here."}
{"substance": "Leu Ser Glu Asp Lys Leu Leu Ala Cys Gly Glu Gly Ala Ala Asp Ile ile Ile Gly His Leu Cys Ile Arg His Glu Met Thr Pro Val Ash Pro Gly Val (LSEDKLLACGEGAADIIIGHLCIRHEMTPVNPGV) [GIP]", "values": [{"measurement": "inhibition of estrogen-stimulated growth (range over Table 1)", "setting": "[1]; 25 to 100 ng/mouse, immature and adult mouse uterus", "result": "33-79%"}, {"measurement": "Percent Growth Inhibition", "setting": "[1]; immature mouse uterus, 25 ng per mouse i.p., E2 challenge 0.5 micrograms", "result": 33, "unit": "%"}, {"measurement": "Percent Growth Inhibition", "setting": "[1]; immature mouse uterus, 25 ng per mouse, added human AFP", "result": 42, "unit": "%"}, {"measurement": "Percent Growth Inhibition", "setting": "[1]; immature mouse uterus, 50 ng per mouse i.p., E2 challenge 0.5 micrograms", "result": "38% and 37% and 30-40%"}, {"measurement": "Percent Growth Inhibition", "setting": "[1]; immature mouse uterus, 100 ng per mouse i.p., E2 challenge 0.5 micrograms", "result": 35, "unit": "%"}, {"measurement": "inhibition of estrogen-stimulated growth", "setting": "[1]; immature mouse uterus, peptide diluted 2,000-fold or more", "result": "30-40%"}, {"measurement": "dose with demonstrable activity without E2 activation prior to inoculation", "setting": "[1]; mouse contains the circulating ligand (estrogen)", "result": 100, "unit": "ng/mouse"}, {"measurement": "Percent Growth Inhibition", "setting": "[2]; adult mouse, 100 μg per mouse daily for 15 days, 0.3-1.0×10^6 tumor cells per mouse, day 15", "result": 97, "unit": "%"}, {"measurement": "Percent Growth Inhibition", "setting": "[2]; adult mouse, 100 μg per mouse daily for 15 days, 1.1-4.0×10^6 tumor cells per mouse, day 15", "result": 79, "unit": "%"}, {"measurement": "Percent Growth Inhibition", "setting": "[2]; adult mouse, 1.1-4.0 × 10^6 tumor cells mixed with 100 μg of the peptide, injected only on day 1", "result": 85, "unit": "%"}, {"measurement": "Percent Growth Inhibition", "setting": "[2]; immature mouse, 1000 μg per mouse daily for 15 days, 0.3-1.0×10^6 tumor cells per mouse, day 15", "result": 57, "unit": "%"}, {"measurement": "Percent Growth Inhibition", "setting": "[2]; immature mouse, 1000 μg per mouse daily for 15 days, 1.1-4.0×10^6 tumor cells per mouse, day 15", "result": 49, "unit": "%"}, {"measurement": "inhibition of DES-induced growth (range over Table 3)", "setting": "[3]; 10ng to 100 μg/mouse", "result": "14-27%"}, {"measurement": "Percent Growth Inhibition", "setting": "[3]; 10 ng per mouse", "result": 27, "unit": "%"}, {"measurement": "Percent Growth Inhibition", "setting": "[3]; 100 ng per mouse", "result": 25, "unit": "%"}, {"measurement": "Percent Growth Inhibition", "setting": "[3]; 800 ng per mouse i.p., DES 0.5 micrograms", "result": 18, "unit": "%"}, {"measurement": "Percent Growth Inhibition", "setting": "[3]; 1 μg per mouse", "result": 22, "unit": "%"}, {"measurement": "Percent Growth Inhibition", "setting": "[3]; 10 μg per mouse", "result": 20, "unit": "%"}, {"measurement": "Percent Growth Inhibition", "setting": "[3]; 100 μg per mouse", "result": 14, "unit": "%"}, {"measurement": "most effective dose", "setting": "[3]; immature uterus, produced 27% growth inhibition", "result": 10, "unit": "ng/mouse"}]}
